Where a name gives a salt, the structure may show the parent alone. Read-outs that look alike come from different tables or passages of the source.
Legend:
Assay type in all cases: in vivo, human
recurrent genital herpes = test: open-label 1-year study of suppressive therapy in patients previously on chronic acyclovir suppression
Description: OBJECTIVE: To document the number of genital herpes outbreaks during a 1-year period of suppressive therapy with valaciclovir hydrochloride in patients previously receiving chronic suppressive therapy with acyclovir. METHODS: A total of 127 patients (81 Males, 46 Females) from 11 study sites enrolled in this open-label study. […] Upon discontinuation of acyclovir, patients received 500 mg valaciclovir hydrochloride once daily. For any genital herpes recurrence, patients self-initiated treatment with valaciclovir hydrochloride 500 mg twice daily for 5 days, then resumed once daily therapy. Patients documented recurrences in a diary and returned to the clinic every three months for drug safety and recurrence evaluation.

[1] = test system: genital herpes simplex virus (HSV) infection; conditions: for recurrences experienced by placebo patients prevented or delayed / recurrences prevented or delayed: 52 weeks; for safety profiles (valaciclovir, aciclovir and placebo compared): in vivo
Text: Objective: To determine the efficacy and safety of 4 doses of oral valaciclovir compared with aciclovir and placebo for the suppression of genital herpes in otherwise healthy patients.
Methods: This study was a multi-centre, international, six-arm, parallel group, randomised, double-blind comparison of the efficacy and safety of 4 doses of oral valaciclovir with oral aciclovir and placebo for the suppression of recurrent episodes of genital herpes simplex virus (HSV) infection in immunocompetent patients. A total of 1279 patients with a history of recurrent genital herpes were randomised into one of 6 treatment arms with a 2:2:2:2:2:1 treatment allocation and followed for 52 weeks. Patients visited the clinic at monthly intervals and on Days 1 and 5 of a genital HSV recurrence. Safety was assessed by adverse experience reporting at each visit and by clinical chemistry and haematology testing every 3 or 6 months respectively.
274 patients received 250 mg twice daily valaciclovir (reference example); 269 patients received 1000 mg once daily valaciclovir; 266 patients received 500 mg once daily valaciclovir; 269 patients received 250 mg once daily valaciclovir; 267 patients received 400 mg twice daily aciclovir; and 134 patients received placebo.

[2] = test system: frequently recurrent genital herpes; test: double blind, placebo controlled multicentre clinical trial of once daily suppressive therapy; conditions: 500 mg once daily
Description: In another study once daily valaciclovir (as the hydrochloride salt), was evaluated as suppressive therapy in a double blind, placebo controlled multicentre clinical trial in otherwise healthy immunocompetent patients with frequently recurrent genital herpes. A total of 382 patients with a history of >8 genital herpes recurrences per year were randomised (3:1) to treatment with once daily valaciclovir (500 mg) or placebo for 16 weeks. Patients experiencing a recurrence discontinued double blind therapy and received open label episodic valaciclovir (500 mg twice daily) for 5 days. They then continued on open label daily valaciclovir, as did those completing the 16 week double blind phase of study without evidence of a breakthrough recurrence, for a total of 48 weeks. Patients were assessed 4-weekly (double blind phase) and every 8 weeks thereafter. The primary efficacy end-point was time to first genital herpes recurrence.

[3] = 400 mg twice daily, entire tenth study year of acyclovir suppression
[4] = 250 mg twice daily (reference example)

## Nc1nc2c(ncn2COCCO)c(=O)[nH]1 [acyclovir, 9-[(2-hydroxyethoxy)methyl]guanine, reference compound]
Recurrent genital herpes; [3]
  mean quarterly recurrence free rate: 89%
  yearly recurrence free rate: 75%
[1]; 400 mg twice daily
  patients recurrence-free after 12 months: approximately half
  recurrences experienced by placebo patients prevented or delayed: 78-79%
[1]
  safety profiles (valaciclovir, aciclovir and placebo compared): similar

## CC(C)[C@H](N)C(=O)OCCOCn1cnc2c(=O)[nH]c(N)nc21 [valaciclovir hydrochloride, 2-[(2-amino-1,6-dihydro-6-oxo-9H-purin-9-yl)methoxy]ethyl-L-valinate hydrochloride]
Recurrent genital herpes; 500 mg once daily, after six months of suppressive therapy (93 of 126 patients)
  total recurrence free rate: 74%
Recurrent genital herpes; 500 mg once daily, after the first three months of suppressive therapy (102 of 126 patients)
  patients remained free of recurrences: 81%
Recurrent genital herpes; 500 mg once daily, following the next three months of suppressive therapy (101 of 119 patients)
  patients remained free of recurrences: 85%
Recurrent genital herpes; 500 mg once daily, for 6 months
  tolerability: well tolerated

## CC(C)[C@H](N)C(=O)OCCOCn1cnc2c(=O)[nH]c(N)nc21 [valaciclovir, 2-[(2-amino-1,6-dihydro-6-oxo-9H-purin-9-yl)methoxy]ethyl L-valinate]
[2]; 16 weeks, intent-to-treat population
  reduction in recurrence rate relative to placebo: 85%
[2]; adverse events infrequent and generally mild
  tolerability: well tolerated
[1]; 250 mg once daily, 12 months
  patients remained recurrence-free during the study period: 22%
[1]; 250 mg once daily
  recurrences prevented or delayed: 54%
[1]; [4]
  patients recurrence-free after 12 months: approximately half
  recurrences experienced by placebo patients prevented or delayed: 78-79%
[1]; 500 mg once daily
  patients recurrence-free at 12 months: Forty
  recurrences prevented or delayed: 71%
[1]; 1000 mg once daily
  patients recurrence-free after 12 months: approximately half
  recurrences experienced by placebo patients prevented or delayed: 78-79%
[1]
  safety profiles (valaciclovir, aciclovir and placebo compared): similar
